Test results taken from BigSolDB 2.1.

Nc1ncnc2nc[nH]c12
solubility (mole fraction)
Settings | 278.15 K | 283.15 K | 288.15 K | 293.15 K | 298.15 K | 303.15 K | 308.15 K | 313.15 K | 318.15 K
in DMF | 0.00192 | 0.00205 | 0.00217 | 0.00232 | 0.00246 | 0.00262 | 0.00278 | 0.00295 | 0.00312
in DMSO | – | – | – | 0.0111 | 0.0117 | 0.0124 | 0.0131 | 0.0137 | 0.0144
in NMP | 0.0095 | 0.00971 | 0.0099 | 0.0101 | 0.0103 | 0.0105 | 0.0107 | 0.0109 | 0.0112
in propylene glycol | 0.0106 | 0.0108 | 0.0109 | 0.0111 | 0.0112 | 0.0114 | 0.0115 | 0.0117 | 0.0118
in water | 5.43e-05 | 6.88e-05 | 8.54e-05 | 0.000108 | 0.000134 | 0.000171 | 0.000216 | 0.000264 | 0.000321
